Laboratory results as given in patent publication US20170367338A1, “COMPOSITIONS AND METHODS FOR IMPROVING AGRONOMIC CHARACTERISTICS OF PLANTS” (MONSANTO TECHNOLOGY LLC, priority 2014, published 2017).
Marks after values point to notes of the source that are not given here.

Key:
[1] = Soy seed treatment field trials (yield); type: in vivo; conditions: seed treatment in soy, multi-location replicated field trials
Protocol: (§1) Tioxazafen was combined with commercial fungicides and insecticides in a tank slurry mix with colorant, polymer, and water at the recommended rates and allowed to mix thoroughly. Using a Gustafson continuous batch seed coater the seed batch was loaded, the treatment slurry was injected and the mixture was allowed to tumble for 35-40 seconds before being ejected into a paper storage bag.
(§2) Predictive nematode sampling was conducted prior to field trial implementation to ensure appropriate levels of nematode pressure. Trial areas were divided into 2 acre sections based upon soil type, crop history, tillage, drainage, fertilization and other agronomic factors. […] Sub-samples (˜1 pint of soil) were taken from each composite sample and placed in a plastic bag, with appropriate handling to ensure viability of nematodes, and sent to a lab for nematode quantification. […]
(§3) Quantitative in-season nematode sampling using root and soil samples was conducted eight weeks after planting for corn and soy trials. […] Samples were sent to a lab for nematode quantification.
(§4) Yield data was collected using commercially available harvesting equipment to harvest each plot. The data were calculated to represent bushels per acre by taking the grain weight over the square footage of each plot and adjusting to 15% moisture.

[2] = Corn seed treatment field trials (yield); type: in vivo; conditions: seed treatment in corn, multi-location replicated field trials
Protocol: as §1, §2, §3, §4

[3] = mice; cited from earlier work
[4] = system: Heterodera glycines (SCN); assay: Seed treatment test of soybean cyst nematode on soybean; type: in vivo; conditions: test a
Protocol: (§5) For a given concentration the chemical is dissolved in 500 ul of acetone and one gram of cucumber seed (RKN test) or soybean seed (SCN test) is added (e.g., 20 mg active ingredient in 500 ul acetone plus 1 gram of seed). The seed solutions are agitated until all seeds were thoroughly covered with the chemical solution. The acetone is then allowed to evaporate by air drying the seeds. The seeds are planted in 2-inch pots containing sandy soil and then the pots are inoculated with 1000 Meloidogyne incognita (RKN) or 1000 Heterodera glycines (SCN) eggs per pot three days after planting. Plants are rated for galling 14 days after egg inoculation for RKN or 28 days after egg inoculation for SCN.

[5] = system: Meloidogyne incognita (RKN); assay: Seed treatment test of root knot nematode on cucumber; type: in vivo; conditions: 10 mg ai/gram seed (abamectin positive control), cucumber seeds
Protocol: as §5

Q: Which effect on yield [1] does the source give for `c1ccc(-c2noc(-c3cccs3)n2)cc1` [Tioxazafen, 3-phenyl-5-(2-thienyl)-1,2,4-oxadiazole] here?
A: yield enhancement

Q: What about the effect on yield [2] of the same compound?
A: yield enhancement

Q: With Abamectin [reference compound] as the compound, how does the “oral LD50” value [3] read?
A: 13.6 mg/kg

Q: What about the “percent cyst reduction relative to control blank treatment” value ([4]; 0.375 mg ai/gram seed) of the same compound?
A: −14^a percent

Q: What about the “percent cyst reduction relative to control blank treatment” value ([4]; 1.5 mg ai/gram seed) of the same compound?
A: −24^a percent

Q: What about the “percent control (galling reduction) relative to the control blank treatment” value [5] of the same compound?
A: 84%
